Measurements: the supplement of paper PMC13380429

How the values were obtained:
[1] = tested on: A549-ACE2 infected with SARS-CoV-2; assay: cell count relative to DMSO; higher = less toxic; conditions: 24 h
[2] = tested on: A549-ACE2; assay: drug-induced phospholipidosis relative to tamoxifen; higher = more phospholipidosis
[3] = tested on: Caco-2; assay: drug sensitivity score (DSS) for viability; higher = more toxic; extreme values may be limits of the assay; conditions: 72 h
[4] = tested on: U2OS; assay: as above; conditions: 72 h
[5] = tested on: HepG2; assay: as above; conditions: 72 h
[6] = tested on: Calu-3; assay: as above; conditions: 72 h
[7] = tested on: Vero E6; assay: as above; conditions: 72 h
[8] = tested on: A549-ACE2 infected with SARS-CoV-2; assay: morphology score (similarity to uninfected cells); higher = more like uninfected cells; conditions: 24 h
[9] = tested on: A549-ACE2 infected with SARS-CoV-2; assay: SARS-CoV-2 infection rate relative to DMSO; higher = more infection; conditions: 24 h
[10] = tested on: U2OS; assay: relative viability EC50 (midpoint between 100% and the lowest measured viability); higher = less toxic; conditions: 72 h
[11] = tested on: Calu-3; assay: as above; conditions: 72 h
[12] = tested on: Vero E6; assay: as above; conditions: 72 h
[13] = tested on: Caco-2; assay: cell viability relative to DMSO; higher = less toxic; conditions: 72 h
[14] = tested on: U2OS; assay: as above; conditions: 72 h
[15] = tested on: HepG2; assay: as above; conditions: 72 h
[16] = tested on: Calu-3; assay: as above; conditions: 72 h
[17] = tested on: Vero E6; assay: as above; conditions: 72 h
[18] = tested on: Caco-2; assay: relative viability EC50 (midpoint between 100% and the lowest measured viability); higher = less toxic; conditions: 72 h
[19] = tested on: HepG2; assay: as above; conditions: 72 h

C[S+]([O-])CCCCN=C=S (configuration not stated) [sulforaphane]
Conditions	SARS-CoV-2 infection rate, [9] [%]	cell count, [1] [%]	cell viability, [13] [%]	cell viability, [14] [%]	cell viability, [15] [%]	cell viability, [16] [%]	cell viability, [17] [%]	morphology score, [8]
1 nM	–	–	92.1	100	90.5	91	103	–
10 nM	–	–	107	104	89.7	91	108	–
100 nM	–	–	104	97.7	90.6	96	104	–
0.3 µM	95	104	–	–	–	–	–	0.21
1000 nM	–	–	91.3	97.9	79.8	108	94.6	–
3 µM	95	99	–	–	–	–	–	-0.05
10 µM	79	85	–	–	–	–	–	0.33
10000 nM	–	–	70.9	77.4	72.3	97.9	90.2	–
30 µM	18	109	–	–	–	–	–	0.82

drug-induced phospholipidosis [%], [2]
Conditions	0.3 µM	0.833333 µM	3.33333 µM	6.66667 µM	10 µM	30 µM
24 h	1.81	-7.24	-2.29	1.54	3.49	22.7
48 h	1.78	-7.01	-5.48	-4.04	-0.65	15.9
72 h	-0.306	-6.99	-5.48	-5.9	-2.75	7.99

Conditions	drug sensitivity score	relative viability EC50 [µM]
[3]	2.5	–
[4]	1.1	–
[5]	4.1	–
[6]	0	–
[7]	0	–
[10]	–	> 10
[11]	–	> 10
[12]	–	> 10

Cc1[nH]c2ccccc2c1CCNC(=O)c1cccs1 [CK-636]
Conditions	SARS-CoV-2 infection rate, [9] [%]	cell count, [1] [%]	cell viability, [13] [%]	cell viability, [14] [%]	cell viability, [15] [%]	cell viability, [16] [%]	cell viability, [17] [%]	morphology score, [8]
1 nM	–	–	98.9	94	99.8	100	104	–
10 nM	–	–	99.8	101	104	90.9	100	–
100 nM	–	–	91.4	94.9	102	91.8	103	–
0.3 µM	101	98	–	–	–	–	–	-0.06
1000 nM	–	–	99.6	100	99.8	99.7	97	–
3 µM	103	99	–	–	–	–	–	-0.01
10 µM	100	101	–	–	–	–	–	0.14
10000 nM	–	–	84.1	93.2	104	93.2	99.3	–
30 µM	100	97	–	–	–	–	–	0.06

drug-induced phospholipidosis [%], [2]
Conditions	0.3 µM	0.833333 µM	3.33333 µM	6.66667 µM	10 µM	30 µM
24 h	6.27	1.27	2.41	2.27	5.29	11.7
48 h	3.87	-1.04	2.68	4.83	2.67	12.2
72 h	1.44	-4.13	1.2	4.21	4.6	12.1

Conditions	drug sensitivity score	relative viability EC50 [µM]
[3]	0.3	–
[4]	0	–
[5]	0	–
[6]	0	–
[7]	0	–
[10]	–	> 10
[11]	–	> 10
[12]	–	> 10
[18]	–	> 10
[19]	–	> 10

CC(C)COc1ccc(CNC(=O)N(Cc2ccc(F)cc2)C2CCN(C)CC2)cc1 [pimavanserin]
Conditions	SARS-CoV-2 infection rate, [9] [%]	cell count, [1] [%]	cell viability, [13] [%]	cell viability, [14] [%]	cell viability, [15] [%]	cell viability, [16] [%]	cell viability, [17] [%]	morphology score, [8]
1 nM	–	–	105	99.4	102	100	101	–
10 nM	–	–	95.7	99.2	104	97	101	–
100 nM	–	–	105	92.2	104	95.1	108	–
0.3 µM	100	101	–	–	–	–	–	-0.07
1000 nM	–	–	110	99.2	103	95.2	99.4	–
10000 nM	–	–	85.7	92	86.2	86.2	98.4	–

[2], 0.3 µM
Conditions	drug-induced phospholipidosis [%]
24 h	4.68
48 h	2.24
72 h	1.32

Conditions	drug sensitivity score	relative viability EC50 [µM]
[3]	0.1	–
[4]	0	–
[5]	0.1	–
[6]	0.1	–
[7]	0	–
[10]	–	> 10
[11]	–	> 10
[12]	–	> 10
[18]	–	> 10
[19]	–	> 10

COc1cc2c(NC3CCN(C4CCCCC4)CC3)nc(N3CCCN(C(C)C)CC3)nc2cc1OCCCN1CCCCC1 [UNC0646]
Conditions	SARS-CoV-2 infection rate, [9] [%]	cell count, [1] [%]	cell viability, [13] [%]	cell viability, [14] [%]	cell viability, [15] [%]	cell viability, [16] [%]	cell viability, [17] [%]	morphology score, [8]
1 nM	–	–	96	103	88.2	96.5	92.2	–
10 nM	–	–	97.6	102	96.7	92.3	97.6	–
100 nM	–	–	100	107	90.9	93.6	94.3	–
0.3 µM	92	106	–	–	–	–	–	0.28
1000 nM	–	–	97.6	97	102	90.4	92	–
3 µM	68	110	–	–	–	–	–	0.67
10 µM	26	112	–	–	–	–	–	0.92
10000 nM	–	–	93.9	94.7	65.3	83.9	100	–
30 µM	47	25	–	–	–	–	–	-0.11

drug-induced phospholipidosis [%], [2]
Conditions	0.3 µM	0.833333 µM	3.33333 µM	6.66667 µM	10 µM	30 µM
24 h	-0.25	5.64	3.14	8.62	22	44.4
48 h	1.05	5.57	5.07	9.69	24.5	45.2
72 h	0.206	4.62	7.33	11.5	28	–

Conditions	drug sensitivity score	relative viability EC50 [µM]
[3]	0	–
[4]	0	–
[5]	1.5	–
[6]	0.6	–
[7]	0	–
[10]	–	> 10
[11]	–	> 10
[12]	–	> 10
[18]	–	> 10
